The results in this text go back to ChEMBL document CHEMBL6087461, “Cell-Permeable Peptide Inhibitors of the p53-hDM2 Interaction via Foldamer Helix Mimicry and Bis-Thioether Stapling” (J Med Chem, 2025).

Active and inactive are the calls of the source. No cut-off for these calls is given here. Starred links: 1 amine or outer side, 2 acyl side, 3 side chain; linkers in the order of their positions; H or OH if unused. Positions of bridges follow the written chain, without caps; N, C: chain ends. Residues, ends and D or L forms follow the SMILES beside them. X1 = CC(C)[C@@H](CNC(N)=O)NC(=O)NC[C@H](C)NC(=O)NC[C@H](CSCCCCCC[*:1])N[*:2]

A short description of test [1]: PROTAC activity at human DM2/p53 extracted from Escherichia coli interaction by measuring inhibition of interaction by time-resolved fluorescence energy transfer (TRFRET) detection method.
The target of test [2] is Tumour suppressor protein p53/Mdm4 (Homo sapiens, UniProt O15151). Briefly: PROTAC activity at human DMX/p53 extracted from Escherichia coli interaction by measuring inhibition of interaction by time-resolved fluorescence energy transfer (TRFRET) detection method. Format: protein assay. A general note: TR-FRET usually uses a lanthanide donor and a delayed reading to cut background.
Sequence of Tumour suppressor protein p53/Mdm4 (P04637 whole entry): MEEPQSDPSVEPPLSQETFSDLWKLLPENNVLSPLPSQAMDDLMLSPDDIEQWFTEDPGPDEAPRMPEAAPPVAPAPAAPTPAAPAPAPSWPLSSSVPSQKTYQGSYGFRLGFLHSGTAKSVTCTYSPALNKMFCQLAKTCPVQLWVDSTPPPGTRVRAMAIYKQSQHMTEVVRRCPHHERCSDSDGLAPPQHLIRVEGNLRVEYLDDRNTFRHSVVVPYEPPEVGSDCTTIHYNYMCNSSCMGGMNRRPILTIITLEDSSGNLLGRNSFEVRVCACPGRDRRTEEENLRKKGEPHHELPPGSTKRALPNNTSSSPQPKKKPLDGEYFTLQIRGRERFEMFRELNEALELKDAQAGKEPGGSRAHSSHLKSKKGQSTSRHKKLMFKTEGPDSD
Sequence of Tumour suppressor protein p53/Mdm4 (O15151 whole entry): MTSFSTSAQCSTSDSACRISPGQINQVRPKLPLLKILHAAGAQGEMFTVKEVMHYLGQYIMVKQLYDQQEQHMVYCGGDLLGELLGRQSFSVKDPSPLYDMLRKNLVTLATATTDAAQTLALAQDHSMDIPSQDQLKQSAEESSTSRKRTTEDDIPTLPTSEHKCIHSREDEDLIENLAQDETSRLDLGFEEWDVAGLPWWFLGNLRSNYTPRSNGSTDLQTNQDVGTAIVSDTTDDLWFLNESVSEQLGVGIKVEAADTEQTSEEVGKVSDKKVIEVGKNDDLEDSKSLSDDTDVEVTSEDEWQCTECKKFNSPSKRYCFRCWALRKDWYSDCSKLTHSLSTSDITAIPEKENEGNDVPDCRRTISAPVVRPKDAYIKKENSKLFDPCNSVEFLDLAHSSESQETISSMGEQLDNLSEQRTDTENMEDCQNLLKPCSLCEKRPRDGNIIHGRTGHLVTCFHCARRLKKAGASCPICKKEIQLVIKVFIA

Test [3] deals with HCT-116. The test can be described thus: Induction of p53 level in human HCT-116 cells expressing wild type p53 measured after 6 hrs by Western blotting analysis. It is filed as functional, cell-based. As to conditions: dose 0.1-40 µM.
Test [4] has as its system HCT-116. The test can be described thus: Induction of P21 RNA level in human HCT-116 cells expressing wild type p53 measured after 6 hrs by RT-qPCR analysis. It is filed as functional, cell-based. The note with it: dose 0.1-10 µM. A general note: Quantitative PCR measures a nucleic acid by following its amplification.
The subject of test [5] is HCT-116. Briefly: Induction of hDM2 RNA level in human HCT-116 cells expressing wild type p53 measured after 6 hrs by RT-qPCR analysis. Format: functional, cell-based. The note with it: dose 0.1-10 µM.
The subject of test [6] is HCT-116. Briefly: Cytotoxicity against human HCT-116 cells assessed as cell viability at 0.1 to 40 uM measured after 2 hrs incubation by LDH release assay. The note with it: dose 0.1-40 µM. It is filed as functional, cell-based.
For test [7], the system named is HCT-116. The test can be described thus: Cytotoxicity against human HCT116 cells expressing wild type p53 and overexpressing human DM2 assessed as cell viability measured after 72 hrs incubation by MTS cell viability assay. Format: functional, cell-based. As to conditions: HCT-116, 72 h.
The test system of another test is MCF7. The test can be described thus: Cytotoxicity against human MCF7 cells expressing wild type p53 and overexpressing human DMX assessed as cell viability measured after 72 hrs incubation by MTS cell viability assay. Format: functional, cell-based. The note with it: MCF7, 72 h. In general terms: Formazan colour is commonly taken as a measure of viable cells.
The test system of test [8] is SW480. The test can be described thus: Cytotoxicity against human SW480 cells expressing p53 mutant and overexpressing human DM2 assessed as cell viability measured after 72 hrs incubation by MTS cell viability assay. It is filed as functional, cell-based.
The test system of test [9] is SW480. Briefly: Cytotoxicity against human SW480 cells expressing lower level of human DM2 assessed as cell viability measured after 72 hrs incubation by MTS cell viability assay. It is filed as functional, cell-based.
Test [10] relates to HCT-116. Briefly: Effect on increase in wild type p53 level in human HCT-116 cells at 10 uM measured after 6 hrs by Western blot analysis. It is filed as functional, cell-based.
For test [11], the system named is HCT-116. Briefly: Effect on increase in p21 RNA level in human HCT-116 cells at 10 uM measured after 6 hrs by RT-qPCR analysis. It is filed as functional, cell-based.
Test [12] has as its system HCT-116. The test can be described thus: Effect on increase in […] RNA level in human HCT-116 cells at 10 uM measured after 6 hrs by RT-qPCR analysis. Format: functional, cell-based.

The IC50 is the concentration that inhibits the measured activity by half. Turning to `CC(=O)N[C@@H](CCCCN)C(=O)N[C@H](C(=O)N[C@@H](Cc1ccccc1)C(=O)N[C@H]1CSCCCCCCSC[C@@H](CNC(=O)N[C@@H](C)CNC(=O)N[C@H](CNC(N)=O)C(C)C)NC(=O)[C@H](Cc2c[nH]c3ccccc23)NC(=O)[C@H](Cc2ccc(O)cc2)NC(=O)[C@H](CCC(=O)O)NC1=O)[C@@H](C)O` (Ac-KTFCEYW; linker 4-C via X1), the figures for the IC50 in test [1] and in [2] were 0.00924 µM and 73.3 µM, respectively. In addition, the Activity result with HCT-116 [3] is “Dose-dependent-effect; Similar To Nutlin-3A”; in the test on HCT-116 [4], “Dose-dependent-effect”; with HCT-116 [5] it was “Dose-dependent-effect”; with HCT-116 [6], “Not active; Indicating Absence Of Direct Effect On Cell Membranes”.

`CC(=O)N[C@@H](CC(C)C)C(=O)N[C@H](C(=O)N[C@@H](Cc1ccccc1)C(=O)N[C@H]1CSCCCCCCSC[C@@H](CNC(=O)N[C@@H](C)CNC(=O)N[C@H](CNC(N)=O)C(C)C)NC(=O)[C@H](Cc2c[nH]c3ccccc23)NC(=O)[C@H](Cc2ccc(O)cc2)NC(=O)[C@H](CCC(=O)O)NC1=O)[C@@H](C)O` (Ac-LTFCEYW; linker 4-C via X1): the IC50 in test [1] was 0.0158 µM; in [2], 262 µM. Also, the Activity result in the test with HCT-116 [3] was “Dose-dependent-effect; Similar To Nutlin-3A And Able To Increase As Low As 0.5 Um”; in the test with HCT-116 [4], “Dose-dependent-effect”; in the test with HCT-116 [5] it was “Dose-dependent-effect”; in the test with HCT-116 [6], “Not active; Indicating Absence Of Direct Effect On Cell Membranes”.

In the case of `CC(C)[C@@H](CNC(N)=O)NC(=O)NC[C@H](C)NC(=O)NC[C@@H]1CSCCCCCCSC[C@H](NC(=O)[C@H](Cc2ccccc2)NC(=O)[C@H](CO)NC(=O)[C@H](CCCCN)NC(=O)[C@H](CCCNC(=N)N)NC(=O)[C@H](CCCNC(=N)N)NC(=O)[C@@H](N)CCCNC(=N)N)C(=O)N[C@@H](CCC(=O)O)C(=O)N[C@@H](Cc2ccc(O)cc2)C(=O)N[C@@H](Cc2c[nH]c3ccccc23)C(=O)N1` (H-RRRKSFCEYW; linker 7-C via X1), the IC50 in [1] worked out at 0.0046 µM; in test [2], 22 µM; with HCT-116 [7], 3.86 µM; in the test with MCF7, 3.98 µM. The result in the test with SW480 [8] and in the test on SW480 [9] was Active. The result with HCT-116 [10], in the test with HCT-116 [11] and in the test on HCT-116 [12] was inactive.
